These results are taken from PMC5055303, “Identification and Tumour-Binding Properties of a Peptide with High Affinity to the Disialoganglioside GD2” (PLoS ONE, 2016).

A short description of series [1]: Phage binding assay on immobilized GD1b. Set-up: species or system human. As to conditions: 10 μg GD1b per well, 1 × 10^11 pfu phage, 1 h room temperature, Fig 1A, 1B. How it is done:
96-well microtiter plates (Greiner, Frickenhausen, Germany) were coated with 10 μg GD2 or 10 μg GD1b per well for one hour at room temperature. Wells were then washed 3 times with DPBS/Tween20 (0.05%), blocked with BSA (1%)/DPBS/Tween20 (0.05%) for 1 hour at room temperature, washed again and subsequently filled with H2O. Plates were stored at 8°C until use. For in vitro selection, 2 x 10^11 plaque forming units (pfu) of the unselected M13 Ph.D.-7 phage display peptide library or the phage pool of the subsequent selection rounds was incubated with DPBS/Tween20 (0.1%, 0.2%, 0,3% or 0,4%) in a GD1b coated well for 1 hour at room temperature on a shaker. The phage solution was then transferred to a well containing GD2 and incubated for 1 hour at room temperature. After washing 10 times with DPBS/Tween20 (0.1%, 0.2%, 0,3% or 0,4%), bound phages were eluted by addition of E. coli ER2738 (OD600nm 0.4–0.5) for 30 minutes at 37°C. […]
Wells were coated with GD3, GD2, GD1b, GT1b or BSA (10 μg/ well each). […] Tumours were subsequently harvested and the phage titers were determined as described above.

Series [2] can be described thus: Phage binding assay on immobilized GT1b. Also on record: species or system human. As to conditions: 10 μg GT1b per well; 1 × 10^11 pfu phage, 1 h room temperature; Fig 1B. How it is done:
(§1) Wells were coated with GD3, GD2, GD1b, GT1b or BSA (10 μg/ well each). For competition experiments, coated wells were pre-incubated with serial dilutions ranging from 10 μg to 100 pg of an 11-mer GD2-specific-peptide in DPBS for one hour at room temperature on a shaker and the supernatant was removed. In total, 1 × 10^11 pfu of the amplified phages were incubated with DPBS/Tween20 (0.3%) for one hour at room temperature on a shaker. After washing with 10 volumes of DPBS/Tween20 (0.3%), bound phages were eluted by adding E. coli ER2738 and phage titer determination was performed as described above. Additionally, an in vivo competition assay was performed in tumour-bearing mice. Therefore, 200 μg of the GD2-specific peptide and 1×10^11 pfu of the phage encoding the same peptide were co-injected intravenously in three IMR32 tumour bearing mice per experiment. Tumours were subsequently harvested and the phage titers were determined as described above.

Series [3] is described as follows: Phage binding assay on immobilized GD2. Also on record: species or system human. As to conditions: 10 μg GD2 per well, 1 × 10^11 pfu phage, DPBS/Tween20 (0.3%), 1 h room temperature, Fig 1A-C. Here is the method: 96-well microtiter plates (Greiner, Frickenhausen, Germany) were coated with 10 μg GD2 or 10 μg GD1b per well for one hour at room temperature. Wells were then washed 3 times with DPBS/Tween20 (0.05%), blocked with BSA (1%)/DPBS/Tween20 (0.05%) for 1 hour at room temperature, washed again and subsequently filled with H2O. Plates were stored at 8°C until use. For in vitro selection, 2 x 10^11 plaque forming units (pfu) of the unselected M13 Ph.D.-7 phage display peptide library or the phage pool of the subsequent selection rounds was incubated with DPBS/Tween20 (0.1%, 0.2%, 0,3% or 0,4%) in a GD1b coated well for 1 hour at room temperature on a shaker. The phage solution was then transferred to a well containing GD2 and incubated for 1 hour at room temperature. After washing 10 times with DPBS/Tween20 (0.1%, 0.2%, 0,3% or 0,4%), bound phages were eluted by addition of E. coli ER2738 (OD600nm 0.4–0.5) for 30 minutes at 37°C. Phage amplification in 20 ml suspension containing E. coli ER2738 (hereafter referred to as phage pool) and titer determination were performed according to the manufacturer’s instructions with the modification that X-Gal was replaced by S-Gal and ferric ammonium citrate (both obtained from Sigma, Taufkirchen, Germany). For in vivo selection, 2 x 10^11 pfu of the phage pool of the 3rd selection round were injected into the tail vein of a mouse with a xenograft tumour induced by inoculation of IMR32 cells (2 x 10^7). Anaesthetised mice were perfused with DPBS 10 min after phage application. Tumours were explanted, homogenized in LB-medium and the phages were eluted with 900 μl of an E. coli ER2738 suspension at 37°C for 30 minutes in an incubator. Of this suspension, 10 μl were used for the determination of the phage titer. The residual volume was used for phage amplification in 20 ml E. coli ER2738 suspension according to the manufacturer’s instructions. Wells were coated with GD3, GD2, GD1b, GT1b or BSA (10 μg/ well each). For competition experiments, coated wells were pre-incubated with serial dilutions ranging from 10 μg to 100 pg of an 11-mer GD2-specific-peptide in DPBS for one hour at room temperature on a shaker and the supernatant was removed. In total, 1 × 10^11 pfu of the amplified phages were incubated with DPBS/Tween20 (0.3%) for one hour at room temperature on a shaker. After washing with 10 volumes of DPBS/Tween20 (0.3%), bound phages were eluted by adding E. coli ER2738 and phage titer determination was performed as described above. Additionally, an in vivo competition assay was performed in tumour-bearing mice. Therefore, 200 μg of the GD2-specific peptide and 1×10^11 pfu of the phage encoding the same peptide were co-injected intravenously in three IMR32 tumour bearing mice per experiment. Tumours were subsequently harvested and the phage titers were determined as described above.

The nature of series [4]: Phage binding assay on immobilized GD3. Also on record: species or system human. The conditions noted are these: 10 μg GD3 per well; 1 × 10^11 pfu phage, 1 h room temperature; Fig 1B. How it is done: as §1
For series [5], the system named is IMR32-induced xenografts. The series can be described thus: Distribution of 111In- and 68Ga-labelled DOTA peptides in vivo (gamma counter). Set-up: species or system NMRI nude mice. Here is the method:
^111In was solved in HCl and a pH 3 was adjusted. DOTA peptides (100 μg) were diluted in the same volume of sodium acetate buffer (pH 5.0). Next, a 1:1 mixture (v/v) of the ^111In /HCl solution and the peptide solution was heated to 80°C for 10 minutes before applying it to a C18 reverse-phase cartridge (Strata™-X 33 μm Polymeric Reversed Phase, Phenomenex, Aschaffenburg, Germany). After washing twice with 5 ml water, elution of the ^111In–labelled peptide was achieved using ethanol abs. and volume was adjusted to 100 μl using isotonic NaCl solution.
^111In—labelled DOTA peptides (200–700 kBq) or ^68Ga—labelled DOTA peptides (80–400 kBq) were injected intravenously into mice bearing IMR32-induced (2 x 10^7 cells s.c.) xenografts. Organs and blood of mice were collected between 5 min and 24 h after injection and their radioactive content was quantified using a gamma counter (Automatic Gamma Counter 1480 Wizard TM 3”). The injected dose was calculated by weighing the syringe with and without the tracer. Activity concentrations were corrected for radioactive decay. To evaluate the effects of kidney protection, a mixture containing Gelofusine (80μg/ g bodyweight)/lysine (400μg/ g weight)/arginine (400μg/ g weight) was injected i.v. 5 minutes before application of the tracer. Here, organs and blood were collected 1 h after injection. To compare ^68Ga -labelled peptides with the clinically established tracer, one group of tumour bearing mice received ^124I -MIBG (100–200 kBq) by intravenous injection.

Series [6] concerns IMR32-induced xenografts. The conditions noted are these: 1×10^11 pfu i.v., 10 min circulation; for phage recovery from tumour tissue: perfusion with DPBS, WHWRLPS-phage vs. control phage. Here is the method: Human IMR32 tumour cells were injected subcutaneously (s.c.) in the right and left femoral region of anesthetized NMRI nude mice (1×10^7 IMR32 cells in 50 μl DPBS and 150 μl Matrigel (BD)). For PET imaging, IMR32 cells were injected s.c. in the neck fold. Imaging and all other interventions were conducted on day 14 day after tumour cell inoculation.
Of the GD2-specific phage or a control phage (GHGRLPS), 1×10^11 pfu were injected intravenously in three IMR32 tumour bearing mice per phage after an i.p. application of the anaesthetics xylazine (16 mg/kg) and ketamine (100 mg/kg). After 10 minutes, the mice were perfused with DPBS and brain, muscle, stomach, kidneys, heart, lung, spleen, liver and tumour were explanted and weighed. Tissues were homogenized in LB-medium using an Ultra-Turrax T25 homogenizer (IKA Labortechnik, Staufen, Germany). Phages were eluted by the addition of E.coli ER2738 bacteria and the phage titers were determined as described above.

For series [7], the system named is IMR32-induced xenografts. As to the kind of experiment: In vivo competition of phage tumour homing by co-injected peptide. Also on record: species or system NMRI nude mice. The conditions noted are these: i.v. coinjection of 200 μg peptide and 1×10^11 pfu WHWRLPS-phage, 10 min; compared to injection of phage only; Fig 2D. How it is done:
as §1

Series [8] in a line: In vitro competition of WHWRLPS-phage binding to GD2 by soluble peptide. Set-up: species or system human. As to conditions: Fig 2B. Here is the method:
as §1

Series [9] relates to IMR32 neuroblastoma cells. As to the kind of experiment: Cell proliferation / viability assay (MTT). It is filed as cell-based, human. As to conditions: 1 μg or 10 μg/ml peptide, maximum reduction after 96 h and 10 μg/ml vs. unrelated control peptide, quintuplicate, Fig 2A. Here is the method:
Proliferation of the human neuroblastoma cell line IMR32 upon peptide addition was evaluated using MTT assays as described. Peptides were used at a concentration of 1 μg and 10 μg per well in a total volume of 200 μl per well. For each time point and each peptide concentration, experiments and controls were performed in quintuplicate.

Where [10] appears, read: one hour after tracer injection, Fig 3C.

With HAIYPRH [phage 2, reference compound], the “binding of phage to immobilized GD1b” value in series [1] is recorded as “did not bind”. Further, the “binding of phage to immobilized GT1b” value in [2] is recorded as “did not bind”. In [3], the “binding of phage to immobilized GD2 (phage output titer)” value (shortened to “binding of phage to immobilized GD2”) is recorded as “did not bind”. For the same molecule, the “binding of phage to immobilized GD3” value in series [4] is reported as “did not bind”.
For the molecule “WHWRLPS-DOTA [68Ga-labelled WHWRLPS peptide, WHWRLPS-DOTA peptide labelled with 68Ga]”, in [5] (mouse, in vivo), the “accumulation in tumour tissue, 124I-MIBG vs. 68Ga-labelled peptide” value was “comparable for both tracers” and the “tissue with highest accumulation” value is on record as “kidney”. Further, in series [5] (mouse, in vivo, iv), the “radioactive load in the kidneys with kidney protection” value is listed as “reduced”; the “radioactivity in the blood with kidney protection” value is recorded as “higher accumulation”; the “tumour-specific uptake, 68Ga- vs. 111In-labelled peptide” value is given as “higher tumour-specific uptake”; the “uptake across tissues in comparison to 111In-labelled peptides” value is reported as “higher uptake across all tissues”.
In the case of `N=C(N)NCc1cccc([131I])c1` [124I-MIBG, metaiodobenzylguanidine, reference compound], in series [5] (setting [10]), the “accumulation in tumour tissue, 124I-MIBG vs. 68Ga-labelled peptide” value is on record as “comparable for both tracers” and the “activity concentration in blood, 124I-MIBG vs. 68Ga-labelled peptide” value is on record as “higher”. Also, the “tissue with highest accumulation” value in [5] (one hour after tracer injection, thyroid not blocked, Fig 3C) is “thyroid”.
In the case of GHWRLPS, in series [3], the “binding of phage to immobilized GD2” value was “impaired binding”.
Take GHGRLPS: the “phage recovery from tumour tissue” value in [6] (Fig 2C) is on record as “did not accumulate in tumour tissue”. The “binding of phage to immobilized GD2” value in series [3] was “impaired binding”.
As for WHWRLGS, the “binding of phage to immobilized GD2” value in series [3] was “impaired binding”.
On the same count and under the same terms, as for WHGRLPS, the entry is “impaired binding”.
“WHWRLPS [WHWRLPS-phage, M13 phage clone displaying the hepta-peptide WHWRLPS]”: the “binding of phage to immobilized GD1b” value in [1] (listed as phage 7) was “lower affinity”. For the same molecule, the “phage recovery from tumour tissue” value in series [6] (Fig 2C) is “Significantly higher amounts”. In addition, in [6] (attributed to mononuclear phagocytic system), the “organs with phage accumulation” value is “liver, the spleen and, to a lesser extent, in the lung”. Further, the “phage recovery from other organs” value in series [6] (compared with control phage (GHGRLPS), Fig 2C) was “lower than that of the control”. The “binding of phage to immobilized GD2” value in [3] is on record as “specifically bound”; in series [3] (listed as phage 7), “high affinity”.
On to WHWRLPS [WHWRLPS-peptide], for which the “reduction of WHWRLPS-phage recovery from tumour tissue” value in series [7] was determined as 84%. Besides, the “maximum reduction of WHWRLPS-phage binding to GD2” value in series [8] (in the presence of 10 μg peptide, wells pre-incubated with peptide 1 h) was 82%. In addition, in series [8] (lowest dilution of the series 10 μg to 100 pg, p < 0.05 vs. 0 μg peptide), the “peptide concentration sufficient to significantly reduce phage binding to GD2” value was determined as 100 pg/mL. For the same molecule, in [9], the “effect on IMR32 cell viability” value is given as “reduce cell viability”.
For GHGRLGS, in series [3], the “binding of phage to immobilized GD2” value is given as “impaired binding”.
